Data from patent US20160082087A1, “WHITENING PROMOTING AGENT OR ATOPIC DERMATITIS AMELIORATING AGENT” (NITTA GELATIN INC., priority 2013, published 2016).
Marks after values point to notes of the source that are not given here. Square brackets hold non-standard residues; d marks the D form. Ends that are not written are not given here. Hyp = O=C(O)[C@@H]1C[C@@H](O)CN1

Experiments:
Format in all cases: cell-based, human
endoserine-1 (ET-1) = test: ET-1 expression suppression test (real time PCR); settings: 0.5 mM, 24 hours, NHEK (NB), control 1.00, GAPDH corrected
Experimental: (§1) A normal human epidermal keratinocyte NHEK (NB) (available from KURABO INDUSTRIES LTD.) was used. The cells were precultured in HuMedia-KG2 (available from KURABO INDUSTRIES LTD.), and 1.5×10^4 cells/mL×5 mL (7.5×10^4 cells/dish) were cultured in a 60 mm laboratory dish for two days. After confirming that the cells were subconfluent, the medium was replaced by 5 mL of HuMedia-KB2 (available from KURABO INDUSTRIES LTD.). Samples were added in respective concentrations, and allowed to react for 24 hours (ET-1, K10), 48 hours (TGM1, ivl, HAS2), and 72 hours (FLG). Total RNA was extracted from the cells, reverse transcribed, and subjected to real time PCR. In the real time PCR, as target genes, endoserine-1 (ET-1; Hs00174961_m1), keratin 10 (K10; Hs01043114_g1), transglutaminase 1 (TGM1; Hs01070310_m1), involucrin (ivl; Hs00846307_s1), filaggrin (FLG; Hs00856927_g1) and hyaluronic acid synthase 2 (HAS2; Hs00193435_m1) were measured. GAPDH was used as a correction gene. Calculation was conducted by using a calibration curve method, and FAM pigment of TaqMan Gene Expression was used in primers and probes.
(§2) For each peptide or the like of Examples 1 to 13 and Comparative Examples 1 to 27, RNA expression amounts of endoserine-1 (ET-1), keratin 10 (K10), transglutaminase 1 (TGM1), involucrin (ivl), filaggrin (FLG) and hyaluronic acid synthase 2 (HAS2) were measured. Values in the tables are each average value±standard deviation, and *, ** and *** denote that they are significant with P<0.05, P<0.01, and P<0.001, respectively with respect to the control in Paired-t-test.

involucrin (ivl) = test: ivl expression promotion test (real time PCR); settings: 0.5 mM, 48 hours, NHEK (NB), control 1.00, GAPDH corrected
Experimental: as §1, §2

[1] = system: hyaluronic acid synthase 2 (HAS2); test: HAS2 expression promotion test (real time PCR); settings: 0.5 mM, 48 hours, NHEK (NB), control 1.00, GAPDH corrected
Experimental: as §1, §2

filaggrin (FLG) = test: FLG expression promotion test (real time PCR); settings: 0.5 mM, 72 hours, NHEK (NB), control 1.00, GAPDH corrected
Experimental: as §1, §2

[2] = system: transglutaminase 1 (TGM1); test: TGM1 expression promotion test (real time PCR); settings: 0.5 mM, 48 hours, NHEK (NB), control 1.00, GAPDH corrected
Experimental: as §1, §2

keratin 10 (K10) = test: K10 expression promotion test (real time PCR); settings: 0.5 mM, 24 hours, NHEK (NB), control 1.00, GAPDH corrected
Experimental: as §1, §2

Row | Transglutaminase 1 RNA expression amount [2] | Compound | Endoserine-I RNA expression amount (endoserine-1 (ET-1)) | Involucrin RNA expression amount (involucrin (ivl)) | Hyaluronic acid synthase 2 RNA expression amount [1] | Filaggrin RNA expression amount (filaggrin (FLG)) | Keratin 10 RNA expression amount (keratin 10 (K10))
1 | 0.64 ± 0.01*** | Pro-Gly [Comparative Example 4] | 1.06 ± 0.10** | 0.72 ± 0.02* | 0.54 ± 0.98* | 0.86 ± 0.18 | 0.89 ± 0.01*
2 | 3.11 ± 0.02*** | Pro-Ala-Gly [Example 4] | 0.67 ± 0.01** | 2.75 ± 0.03*** | 2.99 ± 1.03** | 5.33 ± 1.25*** | 3.98 ± 0.23***
3 | 0.75 ± 0.01** | NCC(=O)O [Comparative Example 9, L-glycine] | 1.01 ± 0.05** | 0.71 ± 0.03** | 0.61 ± 0.40** | 0.87 ± 0.05 | 0.81 ± 0.05
4 | 5.36 ± 0.01*** | Pro-[Hyp]-Gly [Example 5] | 0.53 ± 0.00 | 1.75 ± 0.22* | 2.45 ± 0.90** | 5.32 ± 0.69*** | 3.81 ± 0.17***
